Measured values reported in publication PMC12216189 (Nature Communications, 2025).
Ends that are not written are not given here.

How the values were obtained:
[1] = test system: A. baumannii 19606; assay: Bactericidal assay of kanamycin with/without HNP1, no preincubation; format: cell-based, Acinetobacter baumannii; conditions: 0–100 μg/ml, LB broth, 24 h
[2] = test system: A. baumannii 19606; assay: Biofilm formation assay; format: cell-based, Acinetobacter baumannii; conditions: for Biofilm-enhancing activity of HNP1 mutants (CV staining): HNP1 Ala-scan mutants and analogs, Fig. 6F
[3] = test system: Shigella; conditions: sub-lethal concentrations; ref [78]; cited from earlier work
[4] = test system: Staphylococcus; conditions: ref [26]; cited from earlier work
[5] = test system: A. baumannii 19606; assay: Real colony count bactericidal assay in LB broth; format: cell-based, Acinetobacter baumannii; conditions: 4 μM
[6] = test system: S. aureus, P. aeruginosa, and A. baumannii; conditions: various bacteria, including S. aureus, ref [24]–[26]; cited from earlier work
[7] = target: Fam-A11K-HNP1 (fluorescently labeled synthetic human neutrophil peptide 1) (human); assay: fluorescence polarisation
[8] = test system: drug-resistant bacteria; conditions: ref [84]; cited from earlier work
[9] = test system: A. baumannii 19606; assay: Competitive inhibition by recombinant OmpA of HNP1-promoted biofilm formation; format: cell-based, Acinetobacter baumannii; conditions: 0–2 μM OmpA

NC[C@H]1O[C@H](O[C@H]2[C@H](O)[C@@H](O[C@H]3O[C@H](CO)[C@@H](O)[C@H](N)[C@H]3O)[C@H](N)C[C@@H]2N)[C@H](O)[C@@H](O)[C@@H]1O [Kanamycin]
Kanamycin effect on bacterial growth and survival [1]: dose-dependently inhibited bacterial growth and survival

AFTCHCRR-SCYSTEYSYGTCTVMGINHRFCCL (disulfide) [HD6]
Effect on biofilm formation (CV staining) ([2]; 4 μM, A. baumannii 19606): slightly enhanced it

ATCYCRTGRCATRESLSGVCEISGRLYRLCCR (disulfide (positions not given here)) [HD5]
Effect on biofilm formation (CV staining) ([2]; 4 μM, A. baumannii 19606): slightly enhanced it
Shigella infection of epithelial cells and tissues [3]: promotes, at sub-lethal concentrations, Shigella infection

HBD1: human β-defensin (DHYNCVSSGGQCLYSACPIFTKIQGTCYRGKAKCCK; ends and bridges not checked; cysteine pairing not given here; UniProt P60022 33-68, looked up)
Effect on biofilm formation (CV staining) ([2]; 4 μM, A. baumannii 19606): inactive in promoting biofilm formation

HBD3: human β-defensin 3, cited only (GIINTLQKYYCRVRGGRCAVLSCLPKEEQIGKCSTRGRKCCRRKK; ends and bridges not checked; cysteine pairing not given here; UniProt P81534 23-67, looked up)
Effect on biofilm formation [4]: inhibitory against biofilm formation

I6A: HNP1 Ala-substitution mutant
Biofilm-enhancing activity of HNP1 mutants (CV staining) [2]: significant decrease in biofilm enhancement

I20A/L25A: HNP1 Ala-substitution mutant
Biofilm-enhancing activity of HNP1 mutants (CV staining) [2]: significant decrease in biofilm enhancement

LL37: human cathelicidin (LLGDFFRKSKEKIGKEFKRIVQRIKDFLRNLVPRTES; Antibacterial peptide LL-37; UniProt P49913 134-170, looked up)
Effect on biofilm formation (CV staining) ([2]; 4 μM, A. baumannii 19606): significantly inhibited biofilm formation
Bacterial killing in LB broth [5]: killing of the bacteria even in the presence of LB broth
Effect on biofilm formation [6]: inhibit biofilm formation by various bacteria

OmpA-ΔL1L2 (full-length OmpA with extracellular loops L1 and L2 deleted) (natural protein)
fold decrease of binding against full-length OmpA [7]: 3 fold

R15A: HNP1 Ala-substitution mutant
Biofilm-enhancing activity of HNP1 mutants (CV staining) [2]: significant decrease in biofilm enhancement

T18A: HNP1 Ala-substitution mutant
Biofilm-enhancing activity of HNP1 mutants (CV staining) [2]: significant decrease in biofilm enhancement

TM-ΔL1L2 (transmembrane domain of OmpA with extracellular loops L1 and L2 deleted) (domain or fragment)
fold decrease of binding against the transmembrane domain of OmpA [7]: 3 fold

VCSCRLVFCRRTELRVGNCLIGGVSFTYCCTRV (disulfide (positions not given here)) [HNP4]
Effect on biofilm formation (CV staining) ([2]; 0–32 μM, LB broth, 96-well plate, 24 h, 37 °C): largely inactive
Effect on biofilm formation (CV staining) ([2]; 4 μM, A. baumannii 19606): inactive in promoting biofilm formation

W26A-HNP1: dimerization-debilitating analog
Biofilm-enhancing activity of HNP1 mutants (CV staining) [2]: completely lost their biofilm-enhancing activity

colistin
Potentiation of antibacterial activity of classic antibiotics [8]: potentiate the antibacterial activity of classic antibiotics

B1: full-length recombinant OmpA (outer membrane protein A) of Acinetobacter baumannii ATCC 19606 (natural protein)
chain: GVTVTPLLLGYTFQDSQHNNGGKDGNLTNGPELQDDLFVGAALGIELTPWLGFEAEYNQVKGDVDGASAGAEYKQKQINGNFYVTSDLITKNYDSKIKPYVLLGAGHYKYDFDGVNRGTRGTSEEGTLGNAGVGAFWRLNDALSLRTEARATYNADEEFWNYTALAGLNVVLGGHLKPAAPVVEVAPVEPTPVAPQPQELTEDLNMELRVFFDTNKSNIKDQYKPEIAKVAEKLSEYPNATARIEGHTDNTGPRKLNERLSLARANSVKSALVNEYNVDASRLSTQGFAWDQPIADNKTKEGRAMNRRVFATITGSRTVVVQPGQEAAAPAAAQ
Kd [7]: 500 nM

B2: OmpA: recombinant A. baumannii outer membrane protein A with His tag (protein)
chain: B1 chain
modifications: left off: His tag, end not stated, state not stated
Effect of recombinant OmpA on HNP1-promoted biofilm formation ([9]; 8 μM HNP1): dose-dependently inhibited biofilm formation promoted by HNP1
Effect of recombinant OmpA on biofilm formation without HNP1 ([9]; no HNP1): little effect on biofilm formation
